{
  "source": "patent US10834926B2",
  "about": "“Insecticide properties of an extract of Sextonia rubra, and the constituents thereof” (Centre National de la Recherche Scientifique, priority 2014, dated 2020)",
  "test_system": "larvae of Aedes aegypti mosquitoes of the PAEA laboratory strain",
  "test": "Larvicidal in-cup trial on larvae, protocol adapted from WHO protocols",
  "type": "in vivo",
  "details": "for minimum concentration corresponding to an effective amount (100% mortality): 100% mortality of larvae at 24 h; for LD50 (SE) At 24 h / LD90 (SE) At 24 h / LD50 (SE) At 48 h / LD90 (SE) At 48 h: larval mortality, stage 3-4 larvae, PAEA strain; for LD50 (SE) At 24 h / LD90 (SE) At 24 h: 24 h after exposure; for LD50 (SE) At 48 h / LD90 (SE) At 48 h: 48 h after exposure",
  "description": "For the purposes of the present invention, the expression “agent that is insecticidal/larvicidal with respect to a mosquito strain” is intended to mean a compound which results in the death of the mosquito larvae placed in the presence of this compound, for example in the context of an in-cup trial carried out according to the protocol recommended by the WHO (Guidelines for Laboratory and Field Testing of Mosquito Larvicides, WHO/CDS/WHOPES/GCDPP/2005.13, 2005), and for which, according to the WHO criteria for validating the tests, the mortality in the control batches is less than 20%.\nThe biological trials were carried out on larvae of Aedes aegypti mosquitoes of the PAEA laboratory strain sensitive to all insecticides. The protocol described hereinafter was adapted according to the WHO protocols.\nThis strain originating from French Polynesia has been maintained for about ten years at the insectarium of the Institut Pasteur of Guyana, in Cayenne. The mosquitoes were bred under natural conditions: temperature of 28° C.±2° C., humidity of 80%±20%, and daytime duration 12:12 h±20 min during the year. The Aedes aegypti eggs were kept dry on strips of blotting paper at the insectarium temperature. Hatching was carried out by placing these strips in water under a vacuum bell jar for at least 20 min. The larvae thus obtained were fed with yeast tablets. The larvae at growth stage 3-4 were then used for the extract and constituent activity tests. 100 larvae were transferred into plastic cups containing 99 ml of distilled water. Four cups per concentration (4×25 larvae) and at least 5 concentrations of each extract or constituent diluted in ethanol (crude extract of Sextonia rubra: 1, 2, 3, 4, 5, 7, 10, 25, 35, 50, 75, 100 μg/ml, rubrenolide: 0.1, 0.3, 0.5, 0.7, 1, 1.5, 2 μg/ml, rubrynolide: 0.1, 0.3, 0.5, 0.7, 1, 1.5, 4, 6, 8 μg/ml) were used to measure mortalities ranging from 0 to 100%. Each concentration of extract or of constituent (1 ml) was added to the cup. Controls were also carried out by adding 1 ml of ethanol to the cup. The mortality was evaluated at 24 h and 48 h after exposure of the larvae to the test product (crude extract, isolated constituent, ethanol).",
  "data": [
    {"molecule": "C=CCCCCCCCC[C@@H]1C[C@H](C[C@@H](O)CO)C(=O)O1", "note": "[Rubrenolide, rubrenolide]", "values": [
      {"measurement": "minimum concentration corresponding to an effective amount (100% mortality)", "value": 2, "unit": "µg/mL"},
      {"measurement": "LD50 (SE) At 24 h", "value": "0.605 (0.023) μg/ml"},
      {"measurement": "LD90 (SE) At 24 h", "value": "2.110 (0.041) μg/ml"},
      {"measurement": "LD50 (SE) At 24 h", "setting": "listed as rubrenolide", "value": 0.6, "unit": "µg/mL"},
      {"measurement": "LD50 (SE) At 48 h", "value": "0.300 (0.024) μg/ml"},
      {"measurement": "LD90 (SE) At 48 h", "value": "0.788 (0.027) μg/ml"}
    ]},
    {"molecule": "C#CCCCCCCCC[C@@H]1C[C@H](C[C@@H](O)CO)C(=O)O1", "note": "[Rubrynolide, rubrynolide]", "values": [
      {"measurement": "minimum concentration corresponding to an effective amount (100% mortality)", "value": 17, "unit": "µg/mL"},
      {"measurement": "LD50 (SE) At 24 h", "value": "3.840 (0.018) μg/ml"},
      {"measurement": "LD90 (SE) At 24 h", "value": "8.909 (0.031) μg/ml"},
      {"measurement": "LD50 (SE) At 24 h", "setting": "listed as rubrynolide", "value": 3.8, "unit": "µg/mL"},
      {"measurement": "LD50 (SE) At 48 h", "value": "2.105 (0.023) μg/ml"},
      {"measurement": "LD90 (SE) At 48 h", "value": "8.200 (0.043) μg/ml"}
    ]},
    {"molecule": "COP(=O)(OC)OC=C(Cl)Cl", "note": "[Dichlorvos, dichlorvos, reference compound]", "values": [
      {"measurement": "LD50 (SE) At 24 h", "value": "0.039 (0.012) μg/ml"},
      {"measurement": "LD90 (SE) At 24 h", "value": "0.064 (0.026) μg/ml"},
      {"measurement": "LD50 (SE) At 48 h", "value": "0.029 (0.012) μg/ml"},
      {"measurement": "LD90 (SE) At 48 h", "value": "0.049 (0.020) μg/ml"}
    ]},
    {"molecule": "spinosad [reference compound]", "values": [
      {"measurement": "LD50 (SE) At 24 h", "value": "0.387 (0.025) μg/ml"},
      {"measurement": "LD90 (SE) At 24 h", "value": "1.118 (0.065) μg/ml"},
      {"measurement": "LD50 (SE) At 24 h", "setting": "listed as spinosad", "value": 0.4, "unit": "µg/mL"},
      {"measurement": "LD50 (SE) At 48 h", "value": "0.193 (0.020) μg/ml"},
      {"measurement": "LD90 (SE) At 48 h", "value": "0.444 (0.028) μg/ml"}
    ]}
  ]
}
